This is an account of results in paper PMC6171417, “Carbonic anhydrase inhibition with a series of novel benzenesulfonamide-triazole conjugates” (Journal of Enzyme Inhibition and Medicinal Chemistry, 2018).

Test in all cases: cells
Common to all, as to parameters: species or system NCI human tumour cell line panel; NCI one-dose anti-proliferative screen, human tumour cell line panel, growth inhibition percent (GI%)

One assay concerns 786-0. The conditions noted are these: Homo sapiens, 786-0; growth inhibition (GI%), single dose.
For the next assay, the system named is DU-145. The note with it: Homo sapiens, DU-145; growth inhibition (GI%), single dose.
The test system of a further assay is RXF 393. The conditions noted are these: Homo sapiens, RXF 393; growth inhibition (GI%), single dose.
The subject of a further assay is NCI-H460. The conditions noted are these: Homo sapiens, NCI-H460; growth inhibition (GI%), single dose.
A further assay relates to OVCAR-5. The note with it: Homo sapiens, OVCAR-5; growth inhibition (GI%), single dose.
The subject of the next assay is SK-MEL-28. The conditions noted are these: Homo sapiens, SK-MEL-28; growth inhibition (GI%), single dose.

Broadly, the inhibition is the percentage by which the read-out fell short of the control. A high value points to a strong effect. As to `N#Cc1nnn(-c2ccc(S(N)(=O)=O)cc2)c1/N=C/c1ccc(Cl)cc1` [compound 9, 9], the inhibition at 10 µM in the assay on 786-0 came to 6.1%; in the assay with DU-145 it was 1%.
The molecule `N#Cc1c(-c2ccc(Cl)cc2)nc2c(nnn2-c2ccc(S(N)(=O)=O)cc2)c1N` [compound 16, 4-(7-amino-5-(4-chlorophenyl)-6-cyano-3H-[1,2,3]triazolo[4,5-b]pyridin-3-yl)benzenesulfonamide] gave an inhibition at 10 µM in the assay on RXF 393 of 17.8%.
Turning to `CN(C)c1ccc(-c2nc3c(nnn3-c3ccc(S(N)(=O)=O)cc3)c(N)c2C#N)cc1` [compound 17, 4-(7-amino-6-cyano-5-(4-(dimethylamino)phenyl)-3H-[1,2,3]triazolo[4,5-b]pyridin-3-yl)benzenesulfonamide], the results for the inhibition at 10 µM in the assay on NCI-H460 and in the assay on OVCAR-5 were 0.9% and 3.4%, respectively.
Regarding `CCn1c(=S)[nH]c2c(nnn2-c2ccc(S(N)(=O)=O)cc2)c1=N` [compound 20, 4-(6-ethyl-7-imino-5-thioxo-4,5,6,7-tetrahydro-3H-[1,2,3]triazolo[4,5-d]pyrimidin-3-yl)benzenesulfonamide], 10 µM produced 0% inhibition in the assay on SK-MEL-28.
